Assay results from patent publication US20240158448A1, “MULTIVALENT NANO-'SELF' PEPTIDES AND USES THEREOF” (THE TRUSTEES OF THE UNIVERSITY OF PENNSYLVANIA, priority 2021, published 2024).
Entries after “also recorded” stand apart in the source; their conditions may differ. Where two headings read alike, the source gives them in different places. Non-standard residues stand in square brackets, D forms with d. Primed or numbered codes have the meaning given here. No end group written: not given here. PEG5′ = linker of 5 PEG units between residues

How the values were obtained:
THP-1 macrophages = experiment: Phosphotyrosine (pTyr) staining of THP-1 macrophages; type: cell-based, human; conditions: 20 nM peptide
Experimental: Phosphotyrosine (pTyr) staining. THP-1 monocytes were PMA differentiated for 48 hours. Macrophages were washed with RPMI three times then incubated with 50 μM and 20 nM of either nS-F or nS-FF for 1 hour at 37° C., 5% CO2 and 95% humidity. The same conditions were replicated with the addition of 5 μg/mL anti-CD47. Excess peptide was washed with PBS then macrophages were fixed. […] After washing with PBS, the macrophages were incubated with 1:100 mouse anti-pTyr (Santa Cruz Biotechnology) for 1 hour at room temperature with shaking. Macrophages were washed with PBS then stained with AlexaFluor 488 donkey anti-mouse (1:1000; Invitrogen) and 1 μg/mL Hoechst 33342 for 1 hour with shaking then washed again. Fluorescence imaging and quantification was performed as described elsewhere herein.

human THP-1 macrophages = experiment: In vitro phagocytosis assay: opsonized human RBCs engulfed by peptide-treated THP-1 macrophages; type: cell-based; conditions: for EC50: opsonized human RBCs, human macrophages
Experimental: In vitro phagocytosis assay. Fresh human RBCs were washed twice with 50 mM EDTA (Thermo Fischer) in PBS (Gibco) then twice with 5% FBS in PBS. RBCs were opsonized with 20 μg/mL rabbit anti-human RBC antibody (Rockland) in 5% FBS for 1 hour at RT with shaking. For CD47 blocked RBCs, 5 μg/mL of mouse anti-human CD47 (B6H12; BD Biosciences) were added. Thereafter, RBCs were washed with PBS three times and stained with PKH26 dye (1:800 dilution in PBS; Sigma) for 1 hour at RT with shaking in the dark. RBCs were washed and resuspended in PBS.
THP-1 monocytes were PMA differentiated in RPMI for 48 hours. Macrophages were then washed with RPMI media three times. For SIRPα blocked THP-1 macrophages, 20 nM, 1 μM or 50 μM of the nano—Self peptides were incubated with the THP-1 macrophages for 1 hour at 37 ° C., 5% CO2 and 95% humidity. Those THP-Is were then washed with RPMI three times.
CO2 and 95% humidity. Macrophages were then washed with RPMI three times. Adherent and uninternalized RBCs were lysed with water for 30 seconds followed by immediate replacement with RPMI media. In order to distinguish remaining adherent RBCs from internalized RBCs, opsonized RBCs were stained with AlexaFluor 647 donkey anti-rabbit (binds to rabbit polyclonal opsonin on RBC; Invitrogen) IgG (1:1000) while unopsonized, CD47 blocked RBCs were stained with AlexaFluor 647 donkey anti-mouse (binds to mouse monoclonal anti-CD47 on RBCs; Invitrogen) IgG (1:1000) for 30 minutes. After washing, macrophages were fixed with 4% formaldehyde for 15 minutes at RT, washed with PBS, stained with 1 μg/mL Hoechst 33342, and then washed with PBS again. Fluorescence imaging was performed as described elsewhere herein and quantification was done using ImageJ. At least 200 cells were analyzed and experiments were repeated at least three times.

[1] = tested on: mouse bone marrow derived macrophages (BMDMs); experiment: Phagocytosis of anti-TYRP1 opsonized B16F10 melanoma cells by mouse bone marrow derived macrophages; type: cell-based
Experimental: B16F10 cells: Bone marrow cells were isolated from femurs and tibias of healthy C57BL6/J mice (The Jackson Laboratory) and cultured in 10-cm petri dishes containing IMDM (Gibco) supplemented with 10% v/v FBS, 1% v/v penicillin/streptomycin, and 1:10,000 macrophage colony stimulating factor cytokine (M-CSF; Biolegend) for 7 days at 37° C., 5% CO2 and 95% humidity. All animal experiments were performed according to protocols approved by the University of Pennsylvania's IACUC (protocol #805977 and #804455). The resulting mouse bone marrow derived macrophages (BMDMs) were washed with PBS containing Ca2^+/Mg2^+ (Gibco) then detached with 0.25% trypsin-EDTA (Gibco) and re-plated in 6-well tissue culture plates using IMDM+M-CSF for 24 hours.
Mouse melanoma B16F10 cells were washed with PBS containing Ca2-/Mg2- and then trypsinized with 0.05% trypsin-EDTA. After washing twice with PBS, the cells were labeled with 1:10,000 CFDA—SE (Thermo Fisher) in PBS for 10 minutes. B16F10 cells were opsonized with 10 μg/mL anti-TYRP1 (TA99; Bio X Cell) in PBS for 2 hours at 4° C.with occasional inverting. For CD47 blocked B16F10 cells, 5 μg/mL of […] were added. During the incubation time, the BMDMs were washed with media then stained with 1:2,000 CellTracker Deep Red (Thermo Fisher) in PBS with Ca2^+/Mg2^+ for 10 min. After washing, 50 μM of the nano—Self peptides were incubated with the BMDMs for 1 hour at 37° C., 5% CO2 and 95% humidity. Finally, BMDMs were washed twice with PBS and then twice with serum-free IMDM.
Without removing the supernatant, the opsonized melanoma cells were added to the labeled BMDMs at a ratio of 2:1 for 2 hours at 37° C., 5% CO2 and 95% humidity. During the last 15 minutes of the assay, the cells were Hoechst stained. The wells were washed with serum free IMDM then fixed with 4% formaldehyde for 15 minutes at RT, and PBS washed. Fluorescence imaging was performed using an Olympus IX71 with a digital EMCCD camera (Cascade 512B) and a 40×/0.6 NA objective. Quantification was done with ImageJ (NIH). At least 200 cells were analyzed and two-tailed student's t-test was used to determine statistical significance.

soluble human SIRPα = biological target: T1, soluble human SIRPα (Homo sapiens, UniProt P78324); experiment: Binding of biotinylated peptides on streptavidin beads to soluble SIRPα
T1 construct: Soluble human SIRPα fused with glutathione s-transferase (SIRPα-GST); GST (glutathione S-transferase); made in house
Description: SIRPα Expression and Purification. Soluble human SIRPα fused with glutathione s-transferase (SIRPα-GST) was expressed and purified as previously published (Tsai, et al., 2008, J. Cell Biol. 180:989-1003).
Peptide biotinylation: NHS-biotin (Thermo Fischer) was mixed with nS-wt and nS-V, respectively, following the manufacturer's protocol. The biotinylated peptides were dialyzed against PBS.
Streptavidin-beads binding: Streptavidin-coated polystyrene beads of 2.1 μm radius (Spherotech) were washed and blocked 3x in PBS plus 0.4% BSA. nS-wt-biotin or nS-V-biotin were incubated with the beads for 1 hour at room temperature with shaking. Beads were washed with PBS, then incubated with recombinant SIRPα for 1 hour in ice. Streptavidin beads were labeled with rabbit anti-streptavidin-FITC (Invitrogen) and SIRPα was stained with mouse anti-SIRPα-allophycocyanin (anti-SIRPα-APC; Invitrogen).

T1 sequence (P78324 31-373 limits assumed): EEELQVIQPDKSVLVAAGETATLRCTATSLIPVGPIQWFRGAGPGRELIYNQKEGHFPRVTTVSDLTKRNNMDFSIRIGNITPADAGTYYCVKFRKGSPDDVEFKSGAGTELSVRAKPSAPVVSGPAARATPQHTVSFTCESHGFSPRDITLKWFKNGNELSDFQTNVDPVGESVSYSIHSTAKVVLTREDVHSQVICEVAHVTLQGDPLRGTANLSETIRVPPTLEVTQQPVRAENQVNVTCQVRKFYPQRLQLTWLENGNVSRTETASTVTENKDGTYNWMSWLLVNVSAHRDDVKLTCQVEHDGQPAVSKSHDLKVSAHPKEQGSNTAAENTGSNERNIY

Substance | effect on pTyr signal (THP-1 macrophages) | effect on phagocytosis of opsonized RBCs (words) (human THP-1 macrophages; 20 nM peptide) | macrophages with at least one opsonized RBC internalized (human THP-1 macrophages; 20 nM peptide, anti-RBC opsonized RBCs, 1 h assay) [%] | increase in phagocytosis at higher concentration (human THP-1 macrophages; 1 μM, 50 µM versus 20 nM) [%] | EC50 (human THP-1 macrophages; read-out: efficacy constant (Keff) for phagocytosis) [nM] | activity of bivalent peptide in primary mouse macrophages [1] | macrophages containing opsonized RBCs (human THP-1 macrophages; maximum peptide concentration 50 μM, anti-RBC opsonized RBCs) [%] | EC50 (human THP-1 macrophages; read-out: effective potency (keff) for phagocytosis) [nM] | effect on phagocytosis of opsonized RBCs (words) (human THP-1 macrophages; saturating / 50 μM peptide) | effect on phagocytosis of opsonized WT and SIRPα KO B16 cells ([1]; 50 μM peptide) | SIRPα binding to peptide-coated beads (soluble human SIRPα)
(VTELFREG-PEG5)2-K (VTELFREG[PEG5′]K[PEG5′]GERFLETV; not fully specified; also: bivalent lysine core) [nS-FF, bivalent nS-F linked through PEG5 linkers to a C-terminal Lys] | suppressed pTyr at nanomolar concentrations; also recorded: suppressed passivating pTyr intensity; also recorded: suppressed pTyr signal; also recorded: efficiently suppresses phosphorylation | successful in activating THP-1 to engulf opRBCs; also recorded: more potent in enhancing phagocytosis | ~40 | ~5 | ~8 | low activity; also recorded: reduced activity with mouse macrophages | – | – | – | – | –
VTELTREG [nS-wt, 8-amino acid wild type nano-Self peptide from the CD47 loop, C-terminal amide] | – | – | – | – | – | – | ~30 | ~1000 | least effective among monovalents; also recorded: Lower levels of phagocytosis; also recorded: gives the same result as anti-CD47 | lower levels | fluorescence is only observed in the presence of biotinylated peptide
